Measured values as given in ChEMBL document CHEMBL4808176, “Optimization of Truncated Glucagon Peptides to Achieve Selective, High Potency, Full Antagonists” (J Med Chem, 2021).
Activity calls are given as the source filed them. The calls are words filed in the database; no cut-off is given here.

Experiments:
Glucagon receptor [1] = target: T1, Glucagon receptor (Homo sapiens, UniProt P47871); experiment: Antagonist activity at human GCGR expressed in HEK293 cells assessed as inhibition of glucogon-induced cAMP production by schild plot analysis; assay type: functional, cell-based; conditions: dose 0.1-1.6 µM
Glucagon receptor [2] = target: T1, Glucagon receptor; experiment: Partial antagonist activity at human GCGR expressed in HEK293 cells assessed as inhibition of glucogon-induced cAMP production; assay type: functional, cell-based; conditions: filed as antagonist
[3] = target: Glucagon receptor (Rattus norvegicus) (UniProt P30082); experiment: Displacement of 125I-glucagon from GCGR of rat liver membrane; assay type: cell membranes
Glucagon receptor [4] = target: T1, Glucagon receptor; experiment: Displacement of 125I-glucagon from human GCGR expressed in HEK293 cells membranes incubated for 6 hrs by liquid scintillation counting method; assay type: cell membranes, Membrane

T1 sequence (P47871 whole entry): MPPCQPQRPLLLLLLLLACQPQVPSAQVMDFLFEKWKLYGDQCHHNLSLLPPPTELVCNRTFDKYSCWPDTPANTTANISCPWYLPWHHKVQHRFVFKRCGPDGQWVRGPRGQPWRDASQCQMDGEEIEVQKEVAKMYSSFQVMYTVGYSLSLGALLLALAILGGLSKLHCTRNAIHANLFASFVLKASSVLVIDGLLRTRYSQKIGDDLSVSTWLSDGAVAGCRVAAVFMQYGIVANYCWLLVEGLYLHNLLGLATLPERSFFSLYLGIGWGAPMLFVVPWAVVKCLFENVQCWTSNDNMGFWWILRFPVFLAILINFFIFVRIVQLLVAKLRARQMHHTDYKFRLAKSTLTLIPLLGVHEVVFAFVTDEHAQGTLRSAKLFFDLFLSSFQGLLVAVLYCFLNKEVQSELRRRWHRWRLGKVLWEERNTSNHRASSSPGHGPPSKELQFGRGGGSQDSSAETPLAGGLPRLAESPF
Glucagon receptor (Rattus norvegicus), sequence (P30082 whole entry): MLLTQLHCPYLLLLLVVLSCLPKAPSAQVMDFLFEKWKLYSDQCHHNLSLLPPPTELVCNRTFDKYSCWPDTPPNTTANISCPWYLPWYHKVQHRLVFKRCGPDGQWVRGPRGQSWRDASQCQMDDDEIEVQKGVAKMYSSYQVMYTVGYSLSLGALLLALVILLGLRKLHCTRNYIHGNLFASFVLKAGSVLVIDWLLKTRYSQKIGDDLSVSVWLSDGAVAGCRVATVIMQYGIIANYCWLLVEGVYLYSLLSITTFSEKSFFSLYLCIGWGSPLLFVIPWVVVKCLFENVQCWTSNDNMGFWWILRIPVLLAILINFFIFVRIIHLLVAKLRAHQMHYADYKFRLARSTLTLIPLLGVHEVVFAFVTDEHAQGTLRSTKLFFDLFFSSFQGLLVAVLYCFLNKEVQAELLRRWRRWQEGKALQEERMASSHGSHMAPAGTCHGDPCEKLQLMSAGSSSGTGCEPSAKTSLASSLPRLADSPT

Compound | Activity (Glucagon receptor [1]) | Activity (Glucagon receptor [2]) | Activity ([3]; filed as antagonist) | Activity [3] | IC50 (Glucagon receptor [4])
CSCC[C@H](NC(=O)[C@H](CC(C)C)NC(=O)[C@H](Cc1c[nH]c2ccccc12)NC(=O)[C@H](CCC(N)=O)NC(=O)[C@@H](NC(=O)[C@H](Cc1ccccc1)NC(=O)[C@H](CC(=O)O)NC(=O)[C@H](CCC(N)=O)NC(=O)[C@H](C)NC(=O)[C@H](CCCN=C(N)N)NC(=O)[C@H](CCCN=C(N)N)NC(=O)[C@H](CO)NC(=O)[C@H](CC(=O)O)NC(=O)[C@H](CC(C)C)NC(=O)[C@H](Cc1ccc(O)cc1)NC(=O)[C@H](CCCCN)NC(=O)[C@H](CO)NC(=O)[C@H](Cc1ccc(O)cc1)NC(=O)[C@H](CCC(=O)O)NC(=O)[C@H](CO)NC(=O)[C@@H](NC(=O)[C@H](Cc1ccccc1)NC(=O)[C@@H](NC(=O)CNC(=O)[C@H](CCC(N)=O)NC(=O)[C@@H](N)CO)[C@@H](C)O)[C@@H](C)O)C(C)C)C(=O)N[C@@H](CC(N)=O)C(=O)N[C@H](C(N)=O)[C@@H](C)O | inactive | Active | 41% | – | –
H-LTFTSEYSKYLDSRRAQDFVQWLMNT-NH2 | inactive | Active | – | – | –
H-TSEYSKYLDSRRAQDFVQWLMNT-NH2 | – | – | – | 0.33% | 10 µM
